One compound from patent US12011433B2 (UNIVERSITÁ DEGLI STUDI DI BARI “ALDO MORO”, priority 2016, dated 2024) can be followed below.

The experiment relates to GFAP. Briefly: astroglial activation in LPS-treated mice, GFAP immunoreactivity and immunoblotting. The format is in vivo. On the procedure:
The protein concentration in the supernatant was spectrophotometrically determined by Bradford's protein assay (Bradford, 1976). […] Proteins (25 μg/lane) and prestained standards (BioRad Laboratories, Hercules, CA, USA) were loaded on 7% or 12% SDS precast polyacrylamide gels (BioRad Laboratories). After electrophoresis, the resolved proteins were transferred from the gel to nitrocellulose membranes. A blotting buffer [20 mMTris/150 mM glycine, pH=8.0, 20% (v/v) methanol] was used for gel and membrane saturation and blotting. […] Bands were visualized by chemiluminescence detection (Invitrogen, Milan, Italy). The β-actin level was used as a protein loading control. For tissue analysis, obtained bands were normalized to the level of β-actin performed for each cerebral area tested. For cell cultures the bands were normalized to the β-actin level in each experimental condition. […] VM in all the Figures) once a day for 10 days. […] On the seventh day, mice were anesthetized with tribromoethanol (250 mg/Kg, i.p.) and positioned in a stereotactic apparatus (Kopf Instruments, Tujunga, CA, USA). […] Immunohistochemistry was performed following a standard avidin-biotin complex procedure. […]
In general terms: Immunoblotting shows a protein as a band on a membrane.

For `COc1ccc(-c2noc(CC(=O)O)c2-c2ccc(OC)cc2)cc1` [mofezolac, 2-(3,4-bis(4-methoxyphenyl)isoxazol-5-yl)acetic acid], the GFAP levels entry (immunoblotting, mofezolac + LPS vs LPS alone) is recorded as “significantly reduced”. In addition, the GFAP immunoreactive cells entry (immunohistochemistry, LPS-treated mice, mofezolac 6 mg/kg i.p., all the tested brain areas) is recorded as “reduced the presence of GFAP immunoreactive cells”.
